US9227967B2, “Inhibitor compounds of semicarbazide-sensitive amine oxidases” (Proximagen Limited, priority 2010, dated 2016)
Counter-ions that a name gives are not always drawn.

biological target: T1, human SSAO (Homo sapiens, UniProt Q16853); experiment: SSAO enzyme inhibition assay (benzylamine substrate; HRP-coupled hydrogen peroxide detection or 14C-benzaldehyde detection); format: biochemical; settings: purified recombinantly expressed human SSAO, benzylamine as substrate, r.t.; read-out: SSAO inhibitory activity IC50
T1 construct: made in house
T1 sequence (Q16853 29-763 limits assumed): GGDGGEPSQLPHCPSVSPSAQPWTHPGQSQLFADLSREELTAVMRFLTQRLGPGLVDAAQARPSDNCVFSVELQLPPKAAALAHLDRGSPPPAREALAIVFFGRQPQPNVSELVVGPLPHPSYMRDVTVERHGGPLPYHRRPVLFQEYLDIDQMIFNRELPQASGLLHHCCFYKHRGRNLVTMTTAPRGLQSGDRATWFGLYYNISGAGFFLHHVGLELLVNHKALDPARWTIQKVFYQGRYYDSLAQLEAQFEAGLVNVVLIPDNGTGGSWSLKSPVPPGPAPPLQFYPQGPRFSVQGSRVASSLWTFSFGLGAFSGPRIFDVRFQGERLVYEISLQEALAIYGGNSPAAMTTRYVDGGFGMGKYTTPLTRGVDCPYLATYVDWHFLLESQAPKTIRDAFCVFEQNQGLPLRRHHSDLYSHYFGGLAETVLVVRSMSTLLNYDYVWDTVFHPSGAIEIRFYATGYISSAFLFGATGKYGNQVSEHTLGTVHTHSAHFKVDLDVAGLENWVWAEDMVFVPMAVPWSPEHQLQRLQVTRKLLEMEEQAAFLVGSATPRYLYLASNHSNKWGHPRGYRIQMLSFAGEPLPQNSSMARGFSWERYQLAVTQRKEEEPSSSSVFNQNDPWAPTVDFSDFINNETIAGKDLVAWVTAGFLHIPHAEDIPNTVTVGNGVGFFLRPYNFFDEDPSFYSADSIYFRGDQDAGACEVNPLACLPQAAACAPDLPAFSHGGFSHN
Experimental: All primary assays were performed at r.t. with purified recombinantly expressed human SSAO. Enzyme was prepared essentially as described in Öhman et al. (Protein Expression and Purification 46 (2006) 321-331). In addition, secondary- and selectivity assays were performed using SSAO prepared from various tissues or purified rat recombinant SSAO. The enzyme activity was assayed with benzylamine as substrate by measuring either benzaldehyde production, using ^14C-labeled substrate, or by utilizing the production of hydrogen peroxide in a horseradish peroxidise (HRP) coupled reaction. Briefly, test compounds were dissolved in dimethyl sulfoxide (DMSO) to a concentration of 10 mM. Dose-response measurements were assayed by either creating 1:10 serial dilutions in DMSO to produce a 7 point curve or by making 1:3 serial dilutions in DMSO to produce 11 point curves. The top concentrations were adjusted depending on the potency of the compounds and subsequent dilution in reaction buffer yielded a final DMSO concentration ≦2%.
In a horseradish peroxidise (HRP) coupled reaction, hydrogen peroxide oxidation of 10-acetyl-3,7-dihydroxyphenoxazine produced resorufin, which is a highly fluorescent compound (Zhout and Panchuk-Voloshina. Analytical Biochemistry 253 (1997) 169-174; Amplex® Red Hydrogen Peroxide/peroxidise Assay kit, Invitrogen A22188). Enzyme and compounds in 50 mM sodium phosphate, pH 7.4 were set to pre-incubate in flat-bottomed microtiter plates for approximately 15 minutes before initiating the reaction by addition of a mixture of HRP, benzylamine and Amplex reagent. Benzylamine concentration was fixed at a concentration corresponding to the Michaelis constant, determined using standard procedures. Fluorescence intensity was then measured at several time points during 1-2 hours, exciting at 544 nm n and reading the emission at 590 nm. For the human SSAO assay final concentrations of the reagents in the assay wells were: SSAO enzyme 1 μg/ml, benzylamine 100 μM, Amplex reagent 20 μM, HRP 0.1 U/mL and varying concentrations of test compound. The inhibition was measured as % decrease of the signal compared to a control without inhibitor (only diluted DMSO). The background signal from a sample containing no SSAO enzyme was subtracted from all data points. Data was fitted to a four parameter logistic model and IC50 values were calculated using the GraphPad Prism 4 or XLfit 4 programs.
SSAO activity was assayed using 14C-labeled benzylamine and analysed by measuring radioactive benzaldehyde. In a white 96-well optiplate (Packard), 20 μL of diluted test compound was pre-incubated at r.t. with 20 μL SSAO enzyme for approximately 15 minutes with continuous agitation. All dilutions were made with PBS. The reaction was initiated by adding 20 μL of the benzylamine substrate solution containing [7-14C] Benzylamine hydrochloride (CFA589, GE Healthcare). The plate was incubated for 1 hour as above after which the reaction was stopped by acidification (10 μL 1 M HCl). Then 90 μL Micro Scint-E solution (Perkin-Elmer) was added to each well and the plate was continuously mixed for 15 minutes. Phase separation occurred instantly and activity was read in a Topcount scintillation counter (Perkin-Elmer). In the final reaction well, human recombinant SSAO concentration was 10 μg/ml. In order to optimize sensitivity, the substrate concentration was decreased as compared to the HRP coupled assay in order to get a higher fraction of radioactive product. In the human SSAO assay, benzylamine concentration was 40 μM (0.2 μCi/mL). Data was analysed as above.

Row | IC50 [nM] | SMILES
1 | < 100 | NC1CCC(c2cn(-c3ccc(Cl)cc3)c3cnccc23)CC1 (mixture of isomers) [Compound 12, 4-[1-(4-Chlorophenyl)-1H-pyrrolo[2,3-c]pyridin-3-yl]cyclohexan-1-amine hydrochloride]
2 | 100 to 500 | Cc1cc(Cl)ccc1-n1cc(C2CCC(N)CC2)c2ccncc21 (mixture of isomers) [Compound 13, 4-[1-(4-Chloro-2-methylphenyl)-1H-pyrrolo[2,3-c]pyridin-3-yl]cyclohexan-1-amine hydrochloride]
3 | 500 to 2500 | CC(C)(C)OC(=O)N1CCC(n2cc(-c3ccc(Cl)cc3)c3cnccc32)CC1 [Compound 2, tert-Butyl 4-[3-(4-chlorophenyl)-1H-pyrrolo[3,2-c]pyridin-1-yl]piperidine-1-carboxylate]
4 | 500 to 2500 | O=C(CO)N1CCC(n2cc(-c3ccc(Cl)c(Cl)c3)c3cnccc32)CC1 [Compound 7, 1-{4-[3-(3,4-Dichlorophenyl)-1H-pyrrolo[3,2-c]pyridin-1-yl]piperidin-1-yl}-2-hydroxyethan-1-one]
5 | 500 to 2500 | CC(C)(C)OC(=O)N1CCC(c2cn(-c3ccc(Cl)cc3)c3cnccc23)CC1 [Compound 9, tert-Butyl 4-[1-(4-chlorophenyl)-1H-pyrrolo[2,3-c]pyridin-3-yl]piperidine-1-carboxylate]
6 | 100 to 500 | CN(C)CC(=O)N1CCC(c2cn(-c3ccc(Cl)cc3)c3cnccc23)CC1 [Compound 14, 1-{4-[1-(4-Chlorophenyl)-1H-pyrrolo[2,3-c]pyridin-3-yl]piperidin-1-yl}-2-(dimethyl-amino)ethan-1-one]
7 | < 100 | O=C(CO)N1CCC(c2cn(-c3ccc(Cl)cc3)c3cnccc23)CC1 [Compound 15, 1-{4-[1-(4-Chlorophenyl)-1H-pyrrolo[2,3-c]pyridine-3-yl]piperidin-1-yl}-2-hydroxyethan-1-one]
8 | < 100 | NCC(=O)N1CCC(c2cn(-c3ccc(Cl)cc3)c3cnccc23)CC1 [Compound 16, 2-Amino-{4-[1-(4-chlorophenyl)-1H-pyrrolo[2,3-c]pyridin-3-yl]piperidin-1-yl}-ethan-1-one hydrochloride]
9 | 100 to 500 | N#CCCN1CCC(c2cn(-c3ccc(Cl)cc3)c3cnccc23)CC1 [Compound 21, 3-{4-[1-(4-Chlorophenyl)-1H-pyrrolo[2,3-c]pyridine-3-yl]piperidin-1-yl}propanenitrile hydrochloride]
10 | 100 to 500 | N#CCCCN1CCC(c2cn(-c3ccc(Cl)cc3)c3cnccc23)CC1 [Compound 22, 4-{4-[1-(4-Chlorophenyl)-1H-pyrrolo[2,3-c]pyridin-3-yl]piperidin-1-yl}butanenitrile hydrochloride]
11 | 500 to 2500 | Clc1ccc(-n2cc(CN3CCNCC3)c3ccncc32)cc1 [Compound 26, 1-{[1-(4-Chlorophenyl)-1H-pyrrolo[2,3-c]pyridin-3-yl]methyl}piperazine]
12 | 500 to 2500 | OCCC1CCN(Cc2cn(-c3ccc(Cl)cc3)c3cnccc23)CC1 [Compound 27, 2-(1-{[1-(4-Chlorophenyl)-1H-pyrrolo[2,3-c]pyridin-3-yl]methyl}piperidin-4-yl)ethan-1-ol]
13 | 500 to 2500 | Clc1ccc(-n2cc(CN3CCOCC3)c3ccncc32)cc1 [Compound 29, 4-{[1-(4-Chlorophenyl)-1H-pyrrolo[2,3-c]pyridin-3-yl]methyl}morpholine]

Further lines, the compound ahead of its results:

Row | SMILES | IC50 [nM]
14 | Clc1ccc(-c2cn(CC3CCOC3)c3ccncc23)cc1 (centres unmarked) [Compound 1, 3-(4-Chlorophenyl)-1-(oxolan-3-ylmethyl)-1H-pyrrolo[3,2-c]pyridine] | 500 to 2500
15 | Clc1ccc(-c2cn(C3CCOC3)c3ccncc23)cc1 (centres unmarked) [Compound 3, 3-(4-Chlorophenyl)-1-(oxolan-3-yl)-1H-pyrrolo[3,2-c]pyridine] | 100 to 500
16 | Clc1ccc(-c2cn(C3CCOCC3)c3ccncc23)cc1 [Compound 4, 3-(4-Chlorophenyl)-1-(oxan-4-yl)-1H-pyrrolo[3,2-c]pyridine] | 100 to 500
17 | Clc1ccc(-c2cn(C3CCNCC3)c3ccncc23)cc1 [Compound 5, Bis(2,2,2-trifluoroacetic acid); 4-[3-(4-chlorophenyl)-1H-pyrrolo[3,2-c]pyridin-1-yl]piperidine] | 100 to 500
18 | Clc1ccc(-c2cn(C3CCNCC3)c3ccncc23)cc1Cl [Compound 6, 4-[3-(3,4-Dichlorophenyl)-1H-pyrrolo[3,2-c]pyridin-1-yl]piperidine hydrochloride] | 500 to 2500
19 | Clc1ccc(-n2cc(C3=CCNCC3)c3ccncc32)cc1 [Compound 8, 4-[1-(4-Chlorophenyl)-1H-pyrrolo[2,3-c]pyridin-3-yl]-hydrochloride] | 100 to 500
20 | Clc1ccc(-n2cc(C3CCNCC3)c3ccncc32)cc1 [Compound 10, 1-(4-Chlorophenyl)-3-piperidin-4-yl-1H-pyrrolo[2,3-c]pyridine trifluoroacetate] | 100 to 500
21 | CC(C)(C)OC(=O)NC1CCC(c2cn(-c3ccc(Cl)cc3)c3cnccc23)CC1 (centres unmarked) [Compound 11, tert-Butyl N-{4-[1-(4-chlorophenyl)-1H-pyrrolo[2,3-c]pyridin-3-yl]cyclohexyl}-carbamate] | 100 to 500
22 | NCCC(=O)N1CCC(c2cn(-c3ccc(Cl)cc3)c3cnccc23)CC1 [Compound 17, 3-Amino-1-{4-[1-(4-chlorophenyl)-1H-pyrrolo[2,3-c]pyridin-3-yl]piperidin-1-yl}propan-1-one hydrochloride] | < 100
23 | OCCN1CCC(c2cn(-c3ccc(Cl)cc3)c3cnccc23)CC1 [Compound 18, 2-{4-[1-(4-Chlorophenyl)-1H-pyrrolo[2,3-c]pyridin-3-yl]piperidin-1-yl}ethan-1-ol] | 100 to 500
24 | Clc1ccc(-n2cc(C3CCN(Cc4cc[nH]n4)CC3)c3ccncc32)cc1 [Compound 19, 4-[1-(4-Chlorophenyl)-1H-pyrrolo[2,3-c]pyridin-3-yl]-1-(1H-pyrazol-3-ylmethyl)-piperidine] | 100 to 500
25 | Cn1cc(CN2CCC(c3cn(-c4ccc(Cl)cc4)c4cnccc34)CC2)cn1 [Compound 20, 4-[1-(4-Chlorophenyl)-1H-pyrrolo[2,3-c]pyridin-3-yl]-1-[(1-methyl-1H-pyrazol-4-yl)-methyl]piperidine] | 100 to 500
26 | OCc1cn(-c2ccc(Cl)cc2)c2cnccc12 [Compound 23, [1-(4-Chlorophenyl)-1H-pyrrolo[2,3-c]pyridin-3-yl]methanol] | 500 to 2500
27 | CN1CCN(Cc2cn(-c3ccc(Cl)cc3)c3cnccc23)CC1 [Compound 24, 1-{[1-(4-Chlorophenyl)-1H-pyrrolo[2,3-c]pyridin-3-yl]methyl}-4-methylpiperazine] | 500 to 2500
28 | CC(C)(C)OC(=O)N1CCN(Cc2cn(-c3ccc(Cl)cc3)c3cnccc23)CC1 [Compound 25] | 500 to 2500
29 | OCC1CCN(Cc2cn(-c3ccc(Cl)cc3)c3cnccc23)CC1 [Compound 28, (1-{[1-(4-Chlorophenyl)-1H-pyrrolo[2,3-c]pyridin-3-yl]methyl}piperidin-4-yl)methanol] | 100 to 500
